Reference: the supplement of paper PMC11781733
Structures can show the parent of a compound that is named as a salt.

Experiments:
Conditions in all cases: exposure time: 15 min to 3 h acute
Dugesia japonica [1] = test: any abnormal body shape incidence (% planarians (vehicle-normalised)); higher = higher incidence or increase relative to vehicle control
Experimental: (§1)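 Adult asexual Dugesia japonica planarians (1 per well, 48-well plate, n=24 over technical triplicates) were exposed acutely (15 min to 3 h) to each compound (0.5% DMSO or water vehicle) and screened on a robotic platform for crawl-out, stickiness, body shape, phototaxis, noxious-heat scrunching and locomotion endpoints. Binary endpoints are incidence rate x100 normalised to in-plate vehicle controls. Continuous endpoints are the median response normalised to the plate vehicle median, as % change or difference. Negative incidences after vehicle subtraction were set to 0.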

Dugesia japonica [2] = test: C-shape incidence (% planarians (vehicle-normalised)); higher = higher incidence or increase relative to vehicle control
Experimental: as §1

Dugesia japonica [3] = test: contracted body shape incidence (% planarians (vehicle-normalised)); higher = higher incidence or increase relative to vehicle control
Experimental: as §1

Dugesia japonica [4] = test: total locomotor bursts minus vehicle (bursts difference vs vehicle); higher = higher incidence or increase relative to vehicle control
Experimental: as §1

Dugesia japonica [5] = test: anxiety (time in outer well region) vs vehicle (% change vs vehicle); higher = higher incidence or increase relative to vehicle control
Experimental: as §1

Dugesia japonica [6] = test: noxious heat displacement strength vs vehicle (% change vs vehicle); higher = higher incidence or increase relative to vehicle control
Experimental: as §1

Dugesia japonica [7] = test: resting fraction in blue light vs vehicle (difference in fraction x100 vs vehicle); higher = higher incidence or increase relative to vehicle control
Experimental: as §1

Dugesia japonica [8] = test: stickiness incidence (% planarians (vehicle-normalised)); higher = higher incidence or increase relative to vehicle control
Experimental: as §1

Dugesia japonica [9] = test: loss of heat-induced scrunching incidence (% planarians (vehicle-normalised)); higher = higher incidence or increase relative to vehicle control
Experimental: as §1

Dugesia japonica [10] = test: loss of phototaxis incidence (% planarians (vehicle-normalised)); higher = higher incidence or increase relative to vehicle control
Experimental: as §1

Dugesia japonica [11] = test: pharynx extrusion incidence (% planarians (vehicle-normalised)); higher = higher incidence or increase relative to vehicle control
Experimental: as §1

Dugesia japonica [12] = test: speed second 30 s blue light vs vehicle (% change vs vehicle); higher = higher incidence or increase relative to vehicle control
Experimental: as §1

Dugesia japonica [13] = test: corkscrew incidence (% planarians (vehicle-normalised)); higher = higher incidence or increase relative to vehicle control
Experimental: as §1

Dugesia japonica [14] = test: hyperkinesis incidence (% planarians (vehicle-normalised)); higher = higher incidence or increase relative to vehicle control
Experimental: as §1

Dugesia japonica [15] = test: speed first 30 s blue light vs vehicle (% change vs vehicle); higher = higher incidence or increase relative to vehicle control
Experimental: as §1

Dugesia japonica [16] = test: resting fraction in dark vs vehicle (difference in fraction x100 vs vehicle); higher = higher incidence or increase relative to vehicle control
Experimental: as §1

Dugesia japonica [17] = test: crawl-out incidence (% planarians); higher = higher incidence or increase relative to vehicle control
Experimental: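 Adult asexual Dugesia japonica planarians (1 per well, 48-well plate, n=24 over technical triplicates) were exposed acutely (15 min to 3 h) to each compound (0.5% DMSO or water vehicle) and screened on a robotic platform for crawl-out, stickiness, body shape, phototaxis, noxious-heat scrunching and locomotion endpoints. Binary endpoints are incidence rate x100. Continuous endpoints are the median response normalised to the plate vehicle median, as % change or difference. Negative incidences after vehicle subtraction were set to 0.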

Dugesia japonica [18] = test: speed in dark vs vehicle (% change vs vehicle); higher = higher incidence or increase relative to vehicle control
Experimental: as §1

Compound	any abnormal body shape incidence (Dugesia japonica [1])	C-shape incidence (Dugesia japonica [2])	contracted body shape incidence (Dugesia japonica [3])	total locomotor bursts minus vehicle (Dugesia japonica [4])	anxiety (Dugesia japonica [5])	noxious heat displacement strength (Dugesia japonica [6])	resting fraction in blue light (Dugesia japonica [7])	stickiness incidence (Dugesia japonica [8])	loss of heat-induced scrunching incidence (Dugesia japonica [9])	loss of phototaxis incidence (Dugesia japonica [10])	pharynx extrusion incidence (Dugesia japonica [11])	speed second 30 s blue light (Dugesia japonica [12])	corkscrew incidence (Dugesia japonica [13])	hyperkinesis incidence (Dugesia japonica [14])	speed first 30 s blue light (Dugesia japonica [15])	resting fraction in dark (Dugesia japonica [16])	crawl-out incidence (Dugesia japonica [17])	speed in dark (Dugesia japonica [18])
O=C1CC2(CCCC2)CC(=O)N1CCCCN1CCN(c2ncccn2)CC1 [buspirone] (10 µM)	20.8	0	4.17	6.25	-1.55	-46.4	26.6	16.7	8.33	25	0	-54.8	0	20.8	-68.5	16.7	0	-20.5
CNCC[C@H](Oc1cccc2ccccc12)c1cccs1 [s-duloxetine] (3.16 µM)	0	0	0	-2.5	12	-40.2	-12.5	16.7	25	≤ 0	0	68.4	0	0	167	-19	0	70.8
CN(C)CCC[C@@]1(c2ccc(F)cc2)OCc2cc(C#N)ccc21 [escitalopram] (1000 µM)	69.6	0	4.35	37.8	19.7	-59	18.9	30.4	60.9	8.7	0	-66.8	26.1	56.5	-68.2	17.6	4.17	-42.1
CN1CCN(CCCN2c3ccccc3Sc3ccc(Cl)cc32)CC1 [prochloroperazine] (3.16 µM)	16.7	0	4.17	14.8	19	-46.2	-3.15	4.17	45.8	17.4	0	-55.6	0	12.5	-37.9	15.2	4.17	-37.4
CN1CC(=O)N=C1NC(=O)Nc1cccc(Cl)c1 [fenobam] (100 µM)	0	0	0	2	-2.96	-43	0.38	≤ 0	8.33	≤ 0	0	-27	0	0	-26.8	0	0	-18.5
CCCCNc1c(C(=O)OCC)c(C)nc2c1cnn2CC [tracazolate hydrochloride] (100 µM)	91.7	87.5	4.17	81.5	-79.8	-63.6	59	≤ 0	29.2	12.5	8.33	-91.7	12.5	70.8	-91.5	61.7	0	-83.4
CN(C)CCCN1c2ccccc2CCc2ccccc21 [imipramine] (1 µM)	4.17	0	0	3	-4.11	-4.45	0.17	≤ 0	≤ 0	≤ 0	0	-18.2	0	0	-21.6	6.78	0	-23.4
CN1CCN(C2=Nc3cc(Cl)ccc3Nc3ccccc32)CC1 [clozapine] (100 µM)	81	57.1	28.6	-4.5	-11.2	-29.6	87.8	≤ 0	79.2	62.5	0	-96.2	9.52	23.8	-96.9	77.6	0	-79.5
CNCCC(Oc1ccc(C(F)(F)F)cc1)c1ccccc1 (stereo not given) [fluoxetine hydrochloride] (100 µM)	50	33.3	0	15.5	7.58	-80.3	79.5	≤ 0	37.5	37.5	0	-89.3	0	29.2	-90.4	70.7	0	-65.4
O=C(CCCN1CCC(O)(c2ccc(Cl)cc2)CC1)c1ccc(F)cc1 [haloperidol] (10 µM)	20	0	5	11.5	-0.48	-26.4	8.2	≤ 0	25	20	0	-53.4	10	10	-57.5	15.2	16.7	-47.5
O=C(O)C(=O)O [oxalic acid] (100 µM)	12.5	0	0	6.5	24.9	-11.5	1.86	≤ 0	8.33	≤ 0	0	-8.31	0	12.5	-25.2	-1.66	0	-6.93
CCCCNc1c(C(=O)OCC)c(C)nc2c1cnn2CC [tracazolate hydrochloride] (31.6 µM)	83.3	79.2	4.17	55.8	-51.8	-31.1	51	≤ 0	41.7	33.3	0	-87.7	8.33	12.5	-90.9	39.1	0	-78.9
CN1CCN(C2=Nc3cc(Cl)ccc3Nc3ccccc32)CC1 [clozapine] (10 µM)	58.3	4.17	8.33	15.2	-100	-39.6	70.9	25	75	29.2	0	-90.5	4.17	54.2	-89.8	73.9	0	-75.7
CN1C(=O)CN=C(c2ccccc2)c2cc(Cl)ccc21 [diazepam] (31.6 µM)	41.7	25	8.33	6.5	-8.02	-21.6	17.2	16.7	16.7	8.33	25	-63	4.17	8.33	-43.1	56.8	0	-43.7
CN(C)CCCC1(c2ccc(F)cc2)OCc2cc(C#N)ccc21 (stereo not given) [citalopram hydrobromide] (31.6 µM)	16.7	0	0	1.25	4.85	-16.4	0	≤ 0	33.3	16.7	0	-6.94	0	16.7	6.16	1.41	0	3.2
